The values that follow come from patent US20200368310A1, “TREATMENT WITH NMDA RECEPTOR MODULATORS” (Naurex, Inc, priority 2017, published 2020).

In the assay the test system is Male rats. The assay can be described thus: Sleep-wake cycle analysis by telemetric EEG recording in rats. The settings on record: for percentage of active waking: FIG. 4B. In kind it is in vivo, rat. The method, then: Male rats were anesthetized and surgically implanted with 2 surface electrodes in the frontoparietal cortex and 2 depth electrodes in the CA1 region of the hippocampus (AP +5.0 mm, L ±2.5 mm, V +7.0 mm). After ≥10 days recovery, telemetric transmitters were connected to electrodes for electroencephalographic (EEG) recordings. On the day of experiment, rats were injected at the beginning of the light phase with rapastinel (3, 10, or 30 mg/kg, IV), ketamine (30 mg/kg, IP), or the positive control zolpidem (12 mg/kg, PO) using a treatment schedule based on a cross-over design (n=9-10/dose/group) in which rats received zolpidem or rapastinel at session 1 and then rapastinel and/or ketamine at sessions 2-4. Physiological saline was used as the vehicle control
Sleep-wake cycles were measured continuously following rapastinel treatment for the next 23 hours and were analyzed based on a spectral power analysis. Latencies to first occurrence of SWS and REM sleep, as well as percent time spent in SWS, REM sleep, and wakefulness, were calculated for the total recording sessions (23 hours), the half cycles (0-12 and 12-23 hours), and 5 time segments (0-4, 4-8, 8-12, 12-18, and 18-23 hours). Depth of SWS (defined as the ratio between alpha and delta spectral power) was also calculated. Differences between vehicle and test drugs were calculated for all variables, for each animal, and for the means of the animals per treatment group, and analyzed using a paired t-test

Residues, ends and D or L forms follow the SMILES beside them.

Take `C[C@@H](O)[C@H](N)C(=O)N1CCC[C@H]1C(=O)N1CCC[C@H]1C(=O)N[C@H](C(N)=O)[C@@H](C)O` [Rapastinel, rapastinel] (H-TPPT-NH2): the “percentage of active waking” value (rapastinel 30 mg/kg IV, 8-12 hours post-dose, P<0.01) is “small but significant decrease”; the “percentage of active waking” value (rapastinel 30 mg/kg IV, 18-23 hours post-dose, P<0.05) is “small but significant decrease”; the “percentage of active waking” value (rapastinel, all doses and periods except 8-12 and 18-23 hours at 30 mg/kg) was “no effect”.

For `Cc1ccc(-c2nc3ccc(C)cn3c2CC(=O)N(C)C)cc1` [Zolpidem, zolpidem], the “percentage of active waking” value (zolpidem 12 mg/kg PO, 0-12 hours post-dose, P<0.05) is “significantly decreased”. Under “zolpidem 12 mg/kg PO, 4-8 hours post-dose, P<0.05, FIG. 3”, the “duration of REM sleep” value was “significantly decreased”.

As for `CNC1(c2ccccc2Cl)CCCCC1=O` (stereo not drawn) [Ketamine, ketamine], the “alpha/delta ratio (depth of SWS)” value (ketamine 30 mg/kg IP, 0-4 hours post-dose, P<0.001) is given as “concomitant decrease”. In addition, the “duration of SWS” value (ketamine 30 mg/kg IP, 0-4 hours post-dose, P<0.001, FIG. 2A) was “decreased”. Moreover, where the note is “ketamine 30 mg/kg IP, 0-4 hours post-dose, P<0.001, FIG. 3”, the “duration of REM sleep” value is on record as “decreased”. Moreover, the “waking (duration)” value (ketamine 30 mg/kg IP, 12-23 hours post-dose, P<0.01, FIG. 4A) is listed as “small but significant decrease”. For the setting “ketamine 30 mg/kg IP, 12-23 hours post-dose, P<0.05, FIG. 3”, the “REM sleep (duration)” value was “compensatory increase”. Moreover, under “ketamine 30 mg/kg IP, 12-23 hours post-dose, P<0.05”, the “percentage of active waking” value is recorded as “significantly decreased”. The duration of waking entry (ketamine 30 mg/kg IP, first 4 hours post-dose, P<0.001, FIG. 4A) is given as “significantly increased”.
